Test results: ChEMBL document CHEMBL2440115, “Discovery and characterization of synthetic 4'-hydroxyflavones-New CK2 inhibitors from flavone family” (Bioorg Med Chem, 2013)

Key:
[1] = biological target: Casein kinase II (Homo sapiens, UniProt P19784+P67870+P68400); experiment: Inhibition of recombinant human CK2 using RRRDDDSDDD as substrate after 20 mins by beta counting analysis in presence of [gamma-labeled 32P]ATP; format: protein-complex assay
[2] = biological target: Casein kinase II (Homo sapiens) (UniProt P67870+P68400+P19784); experiment: Inhibition of recombinant human CK2 using RRRDDDSDDD as substrate assessed as residual activity at 10 uM after 20 mins by beta counting analysis in presence of [gamma-labeled 32P]ATP relative to control; format: protein-complex assay

Sequence of Casein kinase II (P67870 whole entry): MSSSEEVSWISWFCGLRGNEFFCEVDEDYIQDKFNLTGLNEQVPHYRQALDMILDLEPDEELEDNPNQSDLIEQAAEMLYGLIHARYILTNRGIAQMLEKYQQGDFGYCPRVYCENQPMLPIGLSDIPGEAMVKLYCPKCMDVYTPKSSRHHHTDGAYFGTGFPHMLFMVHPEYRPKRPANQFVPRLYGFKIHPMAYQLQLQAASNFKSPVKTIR
Sequence of Casein kinase II (P68400 whole entry): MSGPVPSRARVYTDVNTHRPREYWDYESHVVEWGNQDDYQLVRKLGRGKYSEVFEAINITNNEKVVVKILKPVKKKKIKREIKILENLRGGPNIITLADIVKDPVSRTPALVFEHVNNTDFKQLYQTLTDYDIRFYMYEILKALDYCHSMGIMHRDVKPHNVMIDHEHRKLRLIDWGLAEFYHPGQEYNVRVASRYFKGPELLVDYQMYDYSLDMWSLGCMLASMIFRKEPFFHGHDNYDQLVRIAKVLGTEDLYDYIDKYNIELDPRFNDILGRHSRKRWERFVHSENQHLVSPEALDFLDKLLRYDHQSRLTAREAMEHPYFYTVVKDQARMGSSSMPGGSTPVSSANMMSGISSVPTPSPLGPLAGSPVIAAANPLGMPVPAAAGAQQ
Sequence of Casein kinase II (P19784 whole entry): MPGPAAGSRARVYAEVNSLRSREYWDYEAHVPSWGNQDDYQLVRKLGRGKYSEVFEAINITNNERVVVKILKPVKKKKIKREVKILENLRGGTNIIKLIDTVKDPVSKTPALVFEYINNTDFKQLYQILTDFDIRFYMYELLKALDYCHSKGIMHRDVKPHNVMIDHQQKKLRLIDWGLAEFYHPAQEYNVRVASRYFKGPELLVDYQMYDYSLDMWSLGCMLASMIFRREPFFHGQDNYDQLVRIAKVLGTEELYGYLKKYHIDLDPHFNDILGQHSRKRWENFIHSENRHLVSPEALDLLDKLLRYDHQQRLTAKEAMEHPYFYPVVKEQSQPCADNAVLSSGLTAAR

| SMILES | IC50 [1] [µM] | Activity [2] [%] |
| --- | --- | --- |
| COc1cc(-c2cc(=O)c3ccccc3o2)ccc1O | 0.8 | 5 |
| COc1cc(-c2cc(=O)c3cc(C)ccc3o2)cc(OC)c1OC | > 30 | 92 |
| COc1cc(-c2cc(=O)c3ccc4ccccc4c3o2)ccc1O | 0.028 | – |
| COc1cc(-c2cc(=O)c3cc(C)cc(C)c3o2)cc([N+](=O)[O-])c1O | 0.066 | – |
| COc1cc(-c2cc(=O)c3cc(Cl)c(C)cc3o2)ccc1O | 0.79 | – |
| Cc1ccc(-c2oc3c(C)cc(C)cc3c(=O)c2OCC(=O)O)cc1 | 28 | 50 |
| CCN1CCN(Cc2c(O)ccc3oc(-c4cc(OC)c(OC)c(OC)c4)cc(=O)c23)CC1 | > 30 | 77 |
| COc1cc(-c2cc(=O)c3cc(Br)ccc3o2)ccc1O | 0.12 | – |
| Cc1ccc(-c2oc3ccc(C)cc3c(=O)c2OCC(=O)O)cc1 | > 30 | 83 |
| COc1ccc(-c2cc(=O)c3cc(O)ccc3o2)cc1 | 30 | 49 |
| Cc1cc(C)c2oc(-c3ccc(O)c(Br)c3)cc(=O)c2c1 | 0.05 | – |
| COc1ccc(-c2oc3ccccc3c(=O)c2O)cc1 | > 30 | 86 |
| O=c1cc(-c2cccc(Br)c2)oc2ccc(O)cc12 | 19 | 29 |
| COc1cc(-c2cc(=O)c3cc(C)c(C)cc3o2)ccc1O | 3 | – |
| COc1ccc(-c2cc(=O)c3c(CN4CCC(C)CC4)c(O)ccc3o2)cc1 | > 30 | 68 |
| COc1cc(-c2oc3ccc(C)cc3c(=O)c2O)cc(OC)c1OC | > 30 | 65 |
| COc1ccc(-c2oc3ccccc3c(=O)c2OC)cc1OC | > 30 | 66 |
| COc1cc(-c2cc(=O)c3cc(O)ccc3o2)cc(OC)c1OC | 26 | 45 |
| Cc1cc(C)c2oc(-c3cc(Br)c(O)c(Br)c3)cc(=O)c2c1 | 0.18 | – |
| Cc1ccc(-c2cc(=O)c3cc(O)ccc3o2)cc1 | 19 | 35 |
| CN(C)c1ccc(-c2oc3ccccc3c(=O)c2O)cc1 | > 30 | 73 |
| Cc1ccc2oc(-c3ccc(C(C)C)cc3)c(O)c(=O)c2c1 | 26 | 39 |
| Cc1cc(C)c2oc(-c3cc(Cl)c(O)c(Cl)c3)cc(=O)c2c1 | 0.078 | – |
| COc1ccc(-c2oc3ccccc3c(=O)c2OC(C)=O)cc1 | > 30 | 68 |
| COc1cccc(-c2cc(=O)c3cc(C)cc(C)c3o2)c1O | > 30 | – |
| Cc1ccc2oc(-c3ccccc3)c(O)c(=O)c2c1 | > 30 | 80 |

| SMILES | IC50 [1] [µM] | Activity [2] [%] |
| --- | --- | --- |
| Cc1ccc(-c2cc(=O)c3cc(C)cc(C)c3o2)cc1 | 21 | 35 |
| Cc1ccc2oc(-c3ccccc3)c(OCC(=O)N3CCOCC3)c(=O)c2c1 | > 30 | 95 |
| Cc1cc(C)c2oc(-c3cccc(O)c3)cc(=O)c2c1 | 2.2 | – |
| Cc1ccc2oc(-c3ccc(Br)cc3)c(O)c(=O)c2c1 | > 30 | 65 |
| COc1ccc2oc(-c3ccc(O)c(OC)c3)cc(=O)c2c1 | 0.2 | – |
| Cc1cc(C)c2oc(-c3ccc(O)c(O)c3)cc(=O)c2c1 | 0.45 | – |
| COc1cc(-c2cc(=O)c3c(CN4CCCCC4)c(O)ccc3o2)cc(OC)c1OC | > 30 | 74 |
| COc1ccc(-c2oc3c(C)cc(C)cc3c(=O)c2OS(C)(=O)=O)cc1 | 28 | 46 |
| Cc1cc(C)c2c(=O)cc(-c3ccc(N(C)C)cc3)oc2c1 | > 30 | 58 |
| COc1ccc(-c2cc(=O)c3cc(C)ccc3o2)cc1OC | > 30 | 81 |
| COc1cc(-c2cc(=O)c3c(C)cc(C)cc3o2)ccc1O | 0.03 | – |
| COc1ccc(-c2cc(=O)c3cc(C)cc(C)c3o2)cc1OC | > 30 | 87 |
| COc1cc(-c2cc(=O)c3ccc4ccccc4c3o2)cc(Cl)c1O | 0.087 | – |
| COc1ccc(-c2cc(=O)c3c4c(ccc3o2)OCN(Cc2ccco2)C4)cc1 | 12 | 17 |
| Cc1ccc(-c2oc3ccccc3c(=O)c2OCC(=O)N2CCOCC2)cc1 | > 30 | 97 |
| COc1cc(-c2cc(=O)c3c(C)c(Cl)c(C)cc3o2)ccc1O | 2 | – |
| COc1cc(-c2cc(=O)c3cc(NC(C)=O)ccc3o2)ccc1O | 0.15 | – |
| COc1ccc(-c2oc3cc(C)cc(C)c3c(=O)c2OC(=O)C2COc3ccccc3O2)cc1 (stereo not given) | 21 | 37 |
| CCOc1cc(-c2cc(=O)c3cc(C)ccc3o2)ccc1O | 8 | 18 |
| COc1ccc(-c2oc3ccc(C)cc3c(=O)c2O)cc1OC | > 30 | 64 |
| COc1cc(-c2cc(=O)c3cc(Cl)cc(Cl)c3o2)cc(Cl)c1O | 0.02 | – |
| COc1ccc(-c2oc3ccc(C)cc3c(=O)c2OCC(=O)O)cc1 | > 30 | 77 |
| COc1cc(-c2cc(=O)c3cc(C)ccc3o2)ccc1O | 0.32 | – |
| COc1ccc(-c2oc3ccccc3c(=O)c2O)cc1OC [3-HYDROXY-3',4'-DIMETHOXYFLAVONE] | > 30 | 66 |
| COc1cc(-c2cc(=O)c3ccc(C)c(C)c3o2)ccc1O | 0.3 | – |
| CCOc1cc(-c2cc(=O)c3ccccc3o2)ccc1O | 7.5 | 21 |

| SMILES | IC50 [1] [µM] | Activity [2] [%] |
| --- | --- | --- |
| COc1ccc(-c2cc(=O)c3cc(C)cc(C)c3o2)cc1O | > 30 | – |
| COc1cc(-c2cc(=O)c3cc(Cl)ccc3o2)ccc1O | 0.24 | – |
| COc1ccc2c(=O)cc(-c3ccc(O)c(OC)c3)oc2c1 | 0.175 | – |
| Cc1ccc2oc(-c3ccc(Cl)cc3)c(O)c(=O)c2c1 | 23 | 38 |
| CCOc1ccc(-c2oc3ccc(C)cc3c(=O)c2O)cc1 | > 30 | 57 |
| Cc1ccc2oc(-c3ccc(F)cc3)c(O)c(=O)c2c1 | > 30 | 60 |
| COc1cc(-c2cc(=O)c3cc(C)cc(C)c3o2)cc(Br)c1O | 0.65 | – |
| COc1ccc(-c2cc(=O)c3c(CN4CCOCC4)c(O)ccc3o2)cc1 | > 30 | 79 |
| COc1cc(-c2cc(=O)c3cc(C)cc(C)c3o2)cc(Cl)c1O | 0.09 | – |
| Cc1ccc2oc(-c3cc(Br)ccc3O)c(O)c(=O)c2c1 | 28 | 45 |
| Cc1cc(C)c2oc(-c3ccc(O)c([N+](=O)[O-])c3)cc(=O)c2c1 | 0.012 | – |
| Cc1ccc(-c2oc3ccc(C)cc3c(=O)c2O)cc1 | > 30 | 56 |
| COc1ccc(-c2oc3ccc(C)cc3c(=O)c2O)cc1 | 28 | 50 |
| O=c1cc(-c2ccc(F)cc2)oc2ccccc12 | > 30 | 77 |
| COc1ccc(-c2cc(=O)c3c4c(ccc3o2)OCN(c2cccc(C(F)(F)F)c2)C4)cc1 | 15 | 18 |
| COc1cccc(-c2oc3ccc(C)cc3c(=O)c2O)c1 | 25 | 47 |
| Cc1ccc2oc(-c3ccc(O)cc3)cc(=O)c2c1 | 8 | – |
| COc1cc(-c2cc(=O)c3ccc(C)cc3o2)ccc1O | 0.09 | – |
| COc1ccc(-c2cc(=O)c3cc(OC(C)=O)ccc3o2)cc1 | > 30 | 89 |
| COc1ccc(-c2cc(=O)c3c(CN(C)Cc4ccccc4)c(O)ccc3o2)cc1 | > 30 | 73 |
| COc1ccc(-c2cc(=O)c3cc(C)ccc3o2)cc1 | > 30 | 73 |
| Cc1cc(C)c2oc(-c3ccc(O)cc3)cc(=O)c2c1 | 1.6 | – |
| O=C(COc1c(-c2ccccc2Cl)oc2ccccc2c1=O)N1CCOCC1 | > 30 | 97 |
| COc1cc(-c2cc(=O)c3c(CN(C)Cc4ccccc4)c(O)ccc3o2)cc(OC)c1OC | > 30 | 73 |
| CCc1ccc2oc(-c3ccc(O)c(OC)c3)cc(=O)c2c1 | 0.12 | – |
